Data: ChEMBL document CHEMBL4715827, “Structure-guided design of pyridoclax derivatives based on Noxa / Mcl-1 interaction mode” (Eur J Med Chem, 2018)
One block for each molecule: values may come before it. Activity calls are given as the source filed them. The calls are words filed in the database; no cut-off is given here.

Key:
IGROV1-R10 [1] = test: Pro-apoptotic activity in human IGROV1-R10 cells transfected with Bcl-xL siRNA assessed as increase in cleaved PARP expression at 25 uM measured after 24 hrs by Western blot analysis; assay type: functional, cell-based
IGROV1-R10 [2] = test: Pro-apoptotic activity in human IGROV1-R10 cells transfected with Bcl-xL siRNA assessed as increase in cleaved caspase-3 expression at 25 uM measured after 24 hrs by Western blot analysis; assay type: functional, cell-based
[3] = Pro-apoptotic activity in human IGROV1-R10 cells transfected with Bcl-xL siRNA assessed as accumulation at sub G1 phase at 25 uM incubated for 24 hrs by propidium iodide staining based flow cytometry analysis (reference value: 17% ); assay type: functional
[4] = Pro-apoptotic activity in human IGROV1-R10 cells transfected with Bcl-xL siRNA assessed as condensed nuclei at 25 uM measured after 24 hrs by DAPI staining based fluorescence microscopy analysis relative to control; assay type: functional
IGROV1-R10 [5] = test: Pro-apoptotic activity in human IGROV1-R10 cells transfected with Bcl-xL siRNA assessed as morphological alteration at 25 uM measured after 24 hrs by DAPI staining based fluorescence microscopy analysis; assay type: functional, cell-based
[6] = Pro-apoptotic activity in human IGROV1-R10 cells transfected with control siRNA assessed as accumulation at sub G1 phase at 25 uM incubated for 24 hrs by propidium iodide staining based flow cytometry analysis (reference value: 4.5% ); assay type: functional
[7] = target: Induced myeloid leukemia cell differentiation protein Mcl-1 (Homo sapiens) (UniProt Q07820); test: Inhibition of FAM-Bim peptide binding to MCL-1 in human MCF-7 cells assessed as disruption by BRET assay; assay type: cell-based; conditions: MCF7
Sequence of Induced myeloid leukemia cell differentiation protein Mcl-1 (Homo sapiens) (Q07820 whole entry): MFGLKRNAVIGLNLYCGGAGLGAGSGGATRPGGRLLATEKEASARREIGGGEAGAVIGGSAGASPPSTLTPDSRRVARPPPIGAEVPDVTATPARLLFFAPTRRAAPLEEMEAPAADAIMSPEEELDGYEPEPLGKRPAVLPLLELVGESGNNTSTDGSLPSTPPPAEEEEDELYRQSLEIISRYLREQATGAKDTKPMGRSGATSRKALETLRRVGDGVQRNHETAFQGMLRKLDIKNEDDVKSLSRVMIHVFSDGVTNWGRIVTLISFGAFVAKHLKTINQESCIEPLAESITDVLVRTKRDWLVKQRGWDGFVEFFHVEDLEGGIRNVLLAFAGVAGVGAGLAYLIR

IGROV1-R10 [8] = test: Induction of apoptosis in human IGROV1-R10 cells assessed as up regulation of NOXA by Western blot analysis; assay type: functional, cell-based
[9] = Cytotoxicity against human IGROV1-R10 cells transfected with siMCL1 at 15 uM after 24 hrs by fluorescence microscopic analysis; assay type: cell-based; conditions: igrov1-r10, 24 h
[10] = Pro-apoptotic activity in human IGROV1-R10 cells assessed as accumulation at sub G1 phase at 25 uM incubated for 24 hrs by propidium iodide staining based flow cytometry analysis (reference value: 2.8% ); assay type: functional
[11] = Pro-apoptotic activity in human IGROV1-R10 cells assessed as accumulation at sub G1 phase at 25 uM incubated for 24 hrs in presence of ABT-737 by propidium iodide staining based flow cytometry analysis (reference value: 21.2% ); assay type: functional
[12] = Pro-apoptotic activity in human IGROV1-R10 cells assessed as accumulation at sub G1 phase at 10 uM incubated for 24 hrs by propidium iodide staining based flow cytometry analysis (reference value: 2 % ); assay type: functional
[13] = Pro-apoptotic activity in human IGROV1-R10 cells assessed as accumulation at sub G1 phase at 15 uM incubated for 24 hrs by propidium iodide staining based flow cytometry analysis (reference value: 2 % ); assay type: functional
[14] = Pro-apoptotic activity in human IGROV1-R10 cells assessed as accumulation at sub G1 phase at 10 uM incubated for 24 hrs in presence of ABT-737 by propidium iodide staining based flow cytometry analysis (reference value: 10.8% ); assay type: functional
[15] = Pro-apoptotic activity in human IGROV1-R10 cells assessed as accumulation at sub G1 phase at 15 uM incubated for 24 hrs in presence of ABT-737 by propidium iodide staining based flow cytometry analysis (reference value: 10.8% ); assay type: functional
IGROV1-R10 [16] = test: Pro-apoptotic activity in human IGROV1-R10 cells assessed as cleaved PARP expression at 15 uM measured after 24 hrs in presence of ABT-737 by Western blot analysis; assay type: functional, cell-based
IGROV1-R10 [17] = test: Pro-apoptotic activity in human IGROV1-R10 cells assessed as cleaved caspase-3 expression at 15 uM measured after 24 hrs in presence of ABT-737 by Western blot analysis; assay type: functional, cell-based
[18] = Pro-apoptotic activity in human IGROV1-R10 cells transfected with Bcl-xL siRNA assessed as accumulation at sub G1 phase at 15 uM incubated for 4 hrs by propidium iodide staining based flow cytometry analysis relative to control; assay type: functional
[19] = Pro-apoptotic activity in human IGROV1-R10 cells transfected with Bcl-xL siRNA assessed as accumulation at sub G1 phase at 15 uM incubated for 6 hrs by propidium iodide staining based flow cytometry analysis relative to control; assay type: functional
[20] = Pro-apoptotic activity in human IGROV1-R10 cells transfected with Bcl-xL siRNA assessed as accumulation at sub G1 phase at 15 uM incubated for 8 hrs by propidium iodide staining based flow cytometry analysis relative to control; assay type: functional
[21] = Pro-apoptotic activity in human IGROV1-R10 cells transfected with Bcl-xL siRNA assessed as accumulation at sub G1 phase at 15 uM incubated for 12 hrs by propidium iodide staining based flow cytometry analysis relative to control; assay type: functional
[22] = Pro-apoptotic activity in human IGROV1-R10 cells transfected with Bcl-xL siRNA assessed as accumulation at sub G1 phase at 15 uM incubated for 24 hrs by propidium iodide staining based flow cytometry analysis relative to control; assay type: functional
IGROV1-R10 [23] = test: Pro-apoptotic activity in human IGROV1-R10 cells transfected with Bcl-xL siRNA assessed as cleaved PARP expression at 15 uM incubated for 8 hrs by Western blot analysis; assay type: functional, cell-based
IGROV1-R10 [24] = test: Pro-apoptotic activity in human IGROV1-R10 cells transfected with Bcl-xL siRNA assessed as cleaved caspase-3 expression at 15 uM incubated for 8 hrs by Western blot analysis; assay type: functional, cell-based
SK-OV-3 [25] = test: Pro-apoptotic activity in human SKOV3 cells assessed as increase in caspase3/7 positive cells at 15 uM measured after 24 hrs in presence of ABT-737 by DAPI staining based fluorescence microscopy analysis; assay type: functional, cell-based
A2780 [26] = test: Pro-apoptotic activity in human A2780 cells assessed as increase in caspase3/7 positive cells at 15 uM measured after 24 hrs in presence of ABT-737 by DAPI staining based fluorescence microscopy analysis; assay type: functional, cell-based
A549 [27] = test: Pro-apoptotic activity in human A549 cells assessed as accumulation subG1 phase at 15 uM after 24 hrs by flow cytometry (reference value: 2.5%); assay type: functional
A549 [28] = test: Pro-apoptotic activity in human A549 cells assessed as accumulation subG1 phase at 15 uM after 24 hrs in presence of ABT-737 by flow cytometry (reference value: 3.83%); assay type: functional
[29] = Cytotoxicity against human AG1521 cells assessed as accumulation subG1 phase at 15 uM after 24 hrs by flow cytometry (reference value: 1.7%); assay type: cell-based; conditions: ag1521, 24 h
[30] = Cytotoxicity against human AG1521 cells assessed as accumulation subG1 phase at 15 uM after 24 hrs in presence of ABT-737 by flow cytometry (reference value: 1.64%); assay type: cell-based; conditions: ag1521, 24 h
[31] = Pro-apoptotic activity in human IGROV1-R10 cells transfected with Bax siRNA assessed as accumulation at sub G1 phase at 15 uM incubated for 24 hrs by propidium iodide staining based flow cytometry analysis (reference value: 3.2% ); assay type: functional
[32] = Pro-apoptotic activity in human IGROV1-R10 cells transfected with Bak siRNA assessed as accumulation at sub G1 phase at 15 uM incubated for 24 hrs by propidium iodide staining based flow cytometry analysis (reference value: 3.4%); assay type: functional
[33] = Pro-apoptotic activity in human IGROV1-R10 cells transfected with Bak and Bax siRNA assessed as accumulation at sub G1 phase at 15 uM incubated for 24 hrs by propidium iodide staining based flow cytometry analysis (reference value: 4.3%); assay type: functional
[34] = Pro-apoptotic activity in human IGROV1-R10 cells transfected with Bax siRNA assessed as accumulation at sub G1 phase at 15 uM incubated for 24 hrs in presence of ABT-737 by propidium iodide staining based flow cytometry analysis (reference value: 3.2% ); assay type: functional
[35] = Pro-apoptotic activity in human IGROV1-R10 cells transfected with Bak siRNA assessed as accumulation at sub G1 phase at 15 uM incubated for 24 hrs in presence of ABT-737 by propidium iodide staining based flow cytometry analysis (reference value: 3.4% ); assay type: functional
[36] = Pro-apoptotic activity in human IGROV1-R10 cells transfected with Bak and Bax siRNA assessed as accumulation at sub G1 phase at 15 uM incubated for 24 hrs in presence of ABT-737 by propidium iodide staining based flow cytometry analysis (reference value: 4.3% ); assay type: functional
IGROV1-R10 [37] = test: Pro-apoptotic activity in human IGROV1-R10 cells transfected with Bak siRNA assessed as condensed nuclei at 15 uM incubated for 24 hrs in presence of ABT-737 by DAPI staining based fluorescence microscopic analysis; assay type: functional, cell-based
IGROV1-R10 [38] = test: Pro-apoptotic activity in human IGROV1-R10 cells transfected with Bak siRNA assessed as cleaved PARP level at 15 uM incubated for 24 hrs in presence of ABT-737 by Western blot analysis; assay type: functional, cell-based
IGROV1-R10 [39] = test: Pro-apoptotic activity in human IGROV1-R10 cells transfected with Bak siRNA assessed as cleaved caspase-3 level at 15 uM incubated for 24 hrs in presence of ABT-737 by Western blot analysis; assay type: functional, cell-based
SK-OV-3 [40] = test: Pro-apoptotic activity in human SKOV3 cells assessed as increase in caspase3/7 positive cells at 25 uM measured after 24 hrs in presence of ABT-737 by DAPI staining based fluorescence microscopy analysis; assay type: functional, cell-based
A2780 [41] = test: Pro-apoptotic activity in human A2780 cells assessed as increase in caspase3/7 positive cells at 25 uM measured after 24 hrs in presence of ABT-737 by DAPI staining based fluorescence microscopy analysis; assay type: functional, cell-based

Compound: Cc1cc(-c2ncc(-c3cccnc3)cc2/C=C/c2ccccc2)cnc1-c1cccc(CC#N)c1
Activity (IGROV1-R10 [1]): Active
Activity (IGROV1-R10 [2]): Active
Activity [3]: 43%
Activity [4]: 35.1%
Activity (IGROV1-R10 [5]): inactive
Activity [6]: 6.5%

inhibition [7]: inactive
Compound: Cc1cc(-c2ncc(-c3cccnc3)cc2/C=C/c2ccccc2)cnc1-c1cccc(CC(=O)O)c1
Activity (IGROV1-R10 [1]): Active
Activity (IGROV1-R10 [2]): inactive
Activity [3]: 14.5%
Activity [4]: 7.8%
Activity (IGROV1-R10 [5]): inactive
Activity [6]: 6%

Compound: Cc1cc(-c2ncc(-c3cccc(CC#N)c3)cc2/C=C/c2ccccc2)cnc1-c1cccnc1
Activity (IGROV1-R10 [1]): Active
Activity (IGROV1-R10 [2]): Active
Activity [3]: 36.9%
Activity [4]: 25.3%
Activity (IGROV1-R10 [5]): inactive
Activity [6]: 53%

Compound: Cc1cc(-c2ncc(-c3cccc(O)c3)cc2/C=C/c2ccccc2)cnc1-c1cccnc1
Activity (IGROV1-R10 [1]): Active
Activity (IGROV1-R10 [2]): Active
Activity [3]: 37.5%
Activity [4]: 19.9%
Activity (IGROV1-R10 [5]): inactive
Activity [6]: 5.5%

Compound: Cc1cc(-c2ncc(-c3cccnc3)cc2/C=C/c2ccccc2)cnc1-c1cccc(O)c1
Activity (IGROV1-R10 [1]): Active
Activity (IGROV1-R10 [2]): Active
Activity [3]: 52.2%
Activity [4]: 35.9%
Activity (IGROV1-R10 [5]): inactive
Activity [6]: 12.5%

inhibition [7]: Active
Compound: Cc1cc(-c2ncc(-c3cccnc3)cc2/C=C/c2ccccc2)cnc1-c1cccc(C/C(N)=N/O)c1
Activity (IGROV1-R10 [8]): Active
Activity [9]: Non-Toxic
Activity (IGROV1-R10 [1]): Active
Activity (IGROV1-R10 [2]): Active
Activity [3]: 59%
Activity [4]: 91.3%
Activity (IGROV1-R10 [5]): Active
Activity [6]: 47.8%
Activity [10]: 40.69%
Activity [11]: 55.75%
Activity [12]: 2.2%
Activity [13]: 2.8%
Activity [14]: 34.3%
Activity [15]: 57.43%
Activity (IGROV1-R10 [16]): Active
Activity (IGROV1-R10 [17]): Active
Activity [18]: 14.1%
Activity [19]: 19.3%
Activity [20]: 35.2%
Activity [21]: 52.2%
Activity [22]: 64.8%
Activity (IGROV1-R10 [23]): Active
Activity (IGROV1-R10 [24]): Active
Activity (SK-OV-3 [25]): Active
Activity (A2780 [26]): Active
Activity (A549 [27]): 12.93%
Activity (A549 [28]): 68.86%
Activity [29]: 1.98%
Activity [30]: 3.33%
Activity [31]: 7%
Activity [32]: 6.8%
Activity [33]: 6%
Activity [34]: 56.7%
Activity [35]: 41%
Activity [36]: 27.9%
Activity (IGROV1-R10 [37]): inactive
Activity (IGROV1-R10 [38]): inactive
Activity (IGROV1-R10 [39]): inactive

Compound: Cc1cc(-c2ncc(-c3cccnc3)cc2/C=C/c2ccccc2)cnc1-c1cccnc1
Activity (IGROV1-R10 [1]): Active
Activity (IGROV1-R10 [2]): Active
Activity [3]: 62.76%
Activity [4]: 63.4%
Activity (IGROV1-R10 [5]): inactive
Activity [10]: 6.46%
Activity [11]: 70.99%
Activity [12]: 2.5%
Activity [13]: 4.9%
Activity [14]: 22.5%
Activity [15]: 36.1%
Activity (SK-OV-3 [40]): Active
Activity (A2780 [41]): Active

Compound: Cc1cc(-c2ncc(-c3cccc(CC(=O)O)c3)cc2/C=C/c2ccccc2)cnc1-c1cccnc1
Activity (IGROV1-R10 [1]): Active
Activity (IGROV1-R10 [2]): Active
Activity [3]: 46.8%
Activity [4]: 31.7%
Activity (IGROV1-R10 [5]): inactive
Activity [6]: 4.6%

Compound: Cc1cc(-c2ncc(-c3cccc(C/C(N)=N/O)c3)cc2/C=C/c2ccccc2)cnc1-c1cccnc1
Activity (IGROV1-R10 [1]): Active
Activity (IGROV1-R10 [2]): Active
Activity [3]: 45.3%
Activity [4]: 28%
Activity (IGROV1-R10 [5]): inactive
Activity [6]: 4.8%
